Entries after “also recorded” stand apart in the source; their conditions may differ. Where two headings read alike, the source gives them in different places. Non-standard residues stand in square brackets, D forms with d. Residues, ends and D or L forms follow the SMILES beside them. pGlu = O=C1CC[C@@H](C(=O)O)N1
Columns and labels:
[1] = tested on: mammalian pituitary; conditions: reference [11]; cited from earlier work
[2] = target: GnRH binding sites (normal human liver); test: GnRH in vitro binding to non-cancerous postmortem human liver membrane preparation; conditions: for Kd: 95% confidence interval in parentheses, read-out: Receptor Binding Activity (Kd, nM) Normal Human Liver; for Displacement / competitive inhibition of labeled [D-Lys6]-GnRH binding to non-cancerous human liver membrane preparation: unlabeled non-GnRH peptides, FIG. 2D
Procedure: (§1) Cells were grown to confluence as previously described and harvested from the flasks by using a rubber policeman. The cells were washed in normal assay buffer (([…] Tris[hydroxymethyl] aminomethane[Tris]-HCl), containing 1 mM dithiothreitol and 0.5% BSA [fraction-V] (pH 7.6)) and precipitated by centrifugation at 500g for 5 minutes at 4° C.
(§2) The cleaned cells were homogenized in 50 ml of freshly prepared ice cold 25 mM sucrose in assay buffer containing 1 mM Phenylmethanesulphonyl fluoride and 5 mM Ethylenediaminetetraacetic acid, using a glass TEFLON (polytetra-fluoroethylene) homogenizer, followed by centrifugation at 100 ×g for 5 minutes (4° C.). The supernatant was further centrifuged at 17,000×g for 30 minutes at 4° C., and the pellet (crude membrane preparation) washed briefly and resuspended in the assay buffer (approximately 40-50 μg membrane protein or approximately 1 x 10^6 cell equivalent per 100 μl).
(§3) A similar protocol was used to prepare the membrane from fresh rat and frozen human postmortem liver. In all experiments the final membrane preparation was used in the radioreceptor assay within 45 minutes.
(§4) For protein determination, aliquots of crude membrane preparations were washed twice with double distilled water by centrifugation (25,000 ×g) and assayed for protein content, using BSA as the standard. The binding assay was carried out at 4° C.
(§5) The displacement curves were fitted for both single and two classes of binding sites by computer calculated lines, as described.
(§6) Homologous displacement of GnRH-related peptides in membrane homogenates prepared from HepG2 cells and non-cancerous postmortem human liver tissue was studied. Values (mean ± SEM) represent specific binding [B/T, bound over total, in %] determined by subtraction of non-saturable binding in the presence of excess peptides (10^-5 M). Results were obtained from 5 to 7 separated experiments, each carried out in triplicate. The binding data were analyzed by computerized Scatchard analysis (LIGAND) according to Munson and Rodbard.

[3] = tested on: HepG2 cells; test: HepG2 cell proliferation (cell counting); format: cell-based; conditions: for Effect on HepG2 cell proliferation: single administration at 10^-7 M, six days in culture
Procedure: HepG2 or HuH-7 cells were maintained in 75-cm^2 flasks at 37° C. under a humidified atmosphere of 5% CO2 in modified Minimum Essential Medium (Gibco-BRL) supplemented with 10% fetal bovine serum, 200mM 1-Glutamine (1%), Penicillin (1000 IU/ml), streptomycin (100 μg/ml) and sodium bicarbonate (0.15%). Cells grown to confluence were harvested following mild trypsinization and wash (twice by slow centrifugation; 400 g for 10 minutes) in normal culture medium.
Approximately 50,000 cells in 1.0 ml culture media were plated in 24 deep well plates (Flacon). This time was considered day -1. Cells were allowed to grow for one day. The growing cells were then treated with various hormones (at day 0) prepared aseptically in culture media immediately prior to addition. The final volume was maintained at 1 ml. The plates were then incubated at 37° C. for a period of 4 to 6 days, as described above.
Cells in each well were harvested by removal of culture media and incubation with 0.5 ml 0.25% trypsin and 1.75 mM EDTA for 30 minutes at 37° C. Cells were then transferred into 1.5 ml microfuge tubes and centrifuged at 100g for 10 minutes. The supernatant was removed and the pellet was resuspended in a final volume of 200 μl of culture media containing 10% trypan blue.
Cells were then counted using a hemocytometer. The average cell mortality was less than 5.0% and was not different among different treatment groups. Each value represents the mean and standard error of several experiments (n>3), each carried out in quadruplicate incubations at each time point and hormone concentration.
(§7) The potency of various GnRH-related peptides in terms of binding (equilibrium dissociation constant; kd) and growth suppression activity in the human hepatocarcinoma derived cell line HepG2 was studied. […] Data analysis was performed as described.
The effect of GnRH-related peptides on the proliferation of the human hepatoma derived cell line HepG2 was studied. Values (mean ± SEM) represent the percent change with respect to initial cell number at day 0 over a period of six days in culture.
The dose response curves were analyzed by a computerized, four parameter curve fitting program (ALLFIT) as described. The result of time-related response on cell proliferation was analyzed using a two-way ANOVA with multiple comparison means of using computerized statistical package (SYSTAT).

[4] = target: T1, normal pituitary cell GnRH receptors (Rattus norvegicus, UniProt P30969); test: GnRH binding, normal rat pituitary; conditions: 95% confidence interval in parentheses, read-out: Receptor Binding Activity (Kd, nM) Normal Rat
T1 construct: normal pituitary cell GnRH receptors; from tissue; host or cells: normal rat pituitary
T1 sequence (P30969 1-327): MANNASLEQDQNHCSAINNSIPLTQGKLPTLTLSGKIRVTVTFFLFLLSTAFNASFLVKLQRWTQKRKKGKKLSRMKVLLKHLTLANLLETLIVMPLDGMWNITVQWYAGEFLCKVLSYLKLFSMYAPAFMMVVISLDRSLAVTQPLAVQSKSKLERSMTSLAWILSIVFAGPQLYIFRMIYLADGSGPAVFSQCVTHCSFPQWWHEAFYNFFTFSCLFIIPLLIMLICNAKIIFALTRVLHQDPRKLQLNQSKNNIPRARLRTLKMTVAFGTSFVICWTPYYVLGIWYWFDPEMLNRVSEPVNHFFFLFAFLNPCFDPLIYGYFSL
Procedure: as §5
Data analysis was performed as described.

[5] = target: GnRH binding sites (normal rat liver); test: GnRH in vitro binding to normal rat liver membrane preparation; conditions: 95% confidence interval in parentheses, read-out: Receptor Binding Activity (Kd, nM) Normal Rat Liver
Procedure: as §1, §2, §3, §4, §5

[6] = tested on: GnRH receptor (HepG2 membrane preparation); test: GnRH in vitro binding to HepG2 membrane preparation (radioreceptor assay); parameters: species or system human; conditions: for Displacement / competitive inhibition of labeled [D-Lys6]-GnRH binding to HepG2 membrane preparation: unlabeled non-GnRH peptides, FIG. 2B; for Kd: 95% confidence interval in parentheses
Procedure: as §1, §2, §4, §5, §7, §6

[7] = Labeled ligand 125I-[D-Lys6]-GnRH
[8] = Labeled ligand 125I-[D-Lys6]-GnRH, 4° C.
[9] = Labeled ligand 125I-[D-Arg6]-sGnRH-A

| Molecule | Suppression of HepG2 growth ED50 [3] [nM] | Effect on HepG2 cell proliferation [3] | Kd [4, 7] [nM] | Kd [5, 7] [nM] | Displacement / competitive inhibition of labeled [D-Lys6]-GnRH binding to non-cancerous human liver membrane preparation [2] | Displacement / competitive inhibition of labeled [D-Lys6]-GnRH binding to HepG2 membrane preparation [6] | Kd [6, 8] [nM] | also measured |
| --- | --- | --- | --- | --- | --- | --- | --- | --- |
| CC(C)C[C@H](NC(=O)[C@H](Cc1c[nH]c2ccccc12)NC(=O)CNC(=O)[C@H](Cc1ccc(O)cc1)NC(=O)[C@H](CO)NC(=O)[C@H](Cc1c[nH]c2ccccc12)NC(=O)[C@H](Cc1c[nH]cn1)NC(=O)[C@@H]1CCC(=O)N1)C(=O)N1CCC[C@H]1C(=O)NCC(N)=O [sGnRH] ([pGlu]HWSYGWLPG-NH2) | 7.55 | suppressed | 179 | 1560 | – | – | – | Potency in releasing gonadotropin from mammalian pituitary compared to mammalian based GnRH analogs [1]: significantly lower potency; Kd [2, 7]: 7140 nM |
| Met Enkephalin [Met-Enkephalin] | – | – | – | – | did not displace | did not show competitive inhibition | – | Displacement / competitive inhibition of labeled [D-Lys6]-GnRH binding to HepG2 membrane preparation ([6]; listed as Met Enkephalin): did not displace |
| α-melanocyte stimulating hormone [α-MSH, reference compound] | – | lack of effect; also recorded: did not | – | – | did not displace | did not displace; also recorded: did not show competitive inhibition | – | – |
| CC(C)C[C@H](NC(=O)[C@H](CO)NC(=O)[C@H](Cc1ccc(O)cc1)NC(=O)[C@H](Cc1c[nH]cn1)NC(=O)[C@@H]1CCC(=O)N1)C(=O)N[C@@H](CCC(=O)O)C(=O)N[C@@H](Cc1c[nH]c2ccccc12)C(=O)N[C@@H](CCCCN)C(=O)N1CCC[C@H]1C(=O)NCC(N)=O [lGnRH] ([pGlu]HYSLEWKPG-NH2) | 1.5 | suppressed | 2 | 8330 | – | – | 66.6 | Gonadotropin release activity in rat and sheep pituitary [1]: little; Potency in releasing gonadotropin from mammalian pituitary compared to mammalian based GnRH analogs [1]: significantly lower potency; Kd [2, 7]: 6660 nM |
| CC(C)C[C@H](NC(=O)CNC(=O)[C@H](Cc1ccc(O)cc1)NC(=O)[C@H](CO)NC(=O)[C@H](Cc1c[nH]c2ccccc12)NC(=O)[C@H](Cc1c[nH]cn1)NC(=O)[C@@H]1CCC(=O)N1)C(=O)N[C@@H](CCCNC(=N)N)C(=O)N1CCC[C@H]1C(=O)NCC(N)=O [GnRH, reference compound] | – | suppressed | – | 384 | – | – | 9.17 | – |
| CCNC(=O)[C@@H]1CCCN1C(=O)[C@H](CC(C)C)NC(=O)[C@H](Cc1c[nH]c2ccccc12)NC(=O)[C@@H](CCCNC(=N)N)NC(=O)[C@H](Cc1ccc(O)cc1)NC(=O)[C@H](CO)NC(=O)[C@H](Cc1c[nH]c2ccccc12)NC(=O)[C@H](Cc1c[nH]cn1)NC(=O)[C@@H]1CCC(=O)N1 [[D-Arg^6]-sGnRH-A, pGlu-His-Trp-Ser-Tyr-DArg-Trp-Leu-Pro-N-ethylamide] ([pGlu]HWSY[dR]WLP-NHEt) | – | – | – | – | – | – | – | Kd [2, 9]: 3850 nM; Kd [4, 9]: 0.334 nM; Kd [5, 9]: 833 nM; Kd [6, 9]: 7.09 nM |
| CC(C)C[C@H](NC(=O)CNC(=O)[C@H](Cc1c[nH]cn1)NC(=O)[C@H](CO)NC(=O)[C@H](Cc1c[nH]c2ccccc12)NC(=O)[C@H](Cc1c[nH]cn1)NC(=O)[C@@H]1CCC(=O)N1)C(=O)N[C@@H](CC(N)=O)C(=O)N1CCC[C@H]1C(=O)NCC(N)=O [cfGnRH] ([pGlu]HWSHGLNPG-NH2) | 2.29 | suppressed | 140 | 8330 | – | – | 17.9 | – |
| NC(=O)[C@@H]1CCCN1C(=O)[C@H](Cc1cnc[nH]1)NC(=O)[C@@H]1CCC(=O)N1 [TRH, Thyrotropin releasing hormone] | – | – | – | – | did not displace | did not show competitive inhibition | – | Displacement / competitive inhibition of labeled [D-Lys6]-GnRH binding to HepG2 membrane preparation ([6]; listed as Thyrotropin releasing hormone (TRH)): did not displace |
